Article PMC9127750, “Structure-based design of CDC42 effector interaction inhibitors for the treatment of cancer” (Cell reports, 2022)

System: WM3248 melanoma cells, 486 antibodies
Assay: Reverse phase protein arrays (RPPA);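 as to RPPA ACC1.R.C: ratio of treated to vehicle (0 µM) normalized linear protein signal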;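 as to RPPA AMPK.a2 pS345.R.V: ratio of treated to vehicle (0 µM) normalized linear protein signal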;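 as to RPPA AMPKa pT172.R.C: ratio of treated to vehicle (0 µM) normalized linear protein signal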;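 as to RPPA ASNS.R.V: ratio of treated to vehicle (0 µM) normalized linear protein signal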;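 as to RPPA Akt1.R.V: ratio of treated to vehicle (0 µM) normalized linear protein signal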;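 as to RPPA Atg5.R.C: ratio of treated to vehicle (0 µM) normalized linear protein signal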;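 as to RPPA Bim.R.V: ratio of treated to vehicle (0 µM) normalized linear protein signal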
Assay type: cell-based, Human
Conditions: 10 uM
Excerpt: Pellets were snap frozen in liquid nitrogen and shipped to MD Anderson Cancer Center core RPPA facility for RPPA analysis (Table S5). Three biological replicates for each sample were generated.
Nomenclatures on the RPPA heatmaps: name_of_antibody.species_of_antibody.status_of_antibody. V - antibody validated; C - validation of antibody in progress; Q - antibody nonspecific; E – under evaluation; antibodies raised in M - mouse, G - goat, R - rabbit, or T - rat.

CN(C)c1cccc(Nc2cc(-c3ccccc3)nc(C3CCNCC3)n2)c1 [ARN22089, N1,N1-dimethyl-N3-(6-phenyl-2-(piperidin-4-yl)pyrimidin-4-yl)benzene-1,3-diamine]
RPPA level MTCO1.M.V (Average): 0.952
RPPA level Mcl.1.R.V (Average): 0.908
RPPA level MelanA.R.C (Average): 0.925
RPPA level Merlin.R.C (Average): 0.993
RPPA level Midkine.R.V (Average): 1.001
RPPA level Mitofusin.1.R.V (Average): 0.993
RPPA level Mitofusin.2.R.V (Average): 0.945
RPPA level Mnk1.R.V (Average): 0.956
RPPA level mTOR.R.V (Average): 0.929
RPPA level mTOR_pS2448.R.C (Average): 0.962
c.Jun_pS73.R.V RPPA level (Average): 1.013
c.Kit.R.V RPPA level (Average): 1.031
c.Met_pY1234_Y1235.R.V RPPA level (Average): 0.982
c.Myc.R.C RPPA level (Average): 1.334
cGAS.R.V RPPA level (Average): 1.114
cdc2_pY15.R.C RPPA level (Average): 0.967
cdc25C.R.V RPPA level (Average): 0.900
RPPA A.Raf.R.V (C.1): 0.924
RPPA A.Raf_pS299.R.C (C.1): 1.052
RPPA ACC1.R.C (C.1): 0.932
RPPA ACC_pS79.R.V (C.1): 1.211
RPPA ACLY_pS455.R.V (C.1): 1.216
RPPA ACVRL1.R.C (C.1): 1.064
RPPA ADAR1.M.V (C.1): 1.080
RPPA ALKBH5.R.V (C.1): 1.056
RPPA AMPK.a2_pS345.R.V (C.1): 0.962
RPPA AMPKa.R.C (C.1): 0.981
RPPA AMPKa_pT172.R.C (C.1): 2.354
RPPA AR.R.V (C.1): 0.957
RPPA ARID1A.R.C (C.1): 1.055
RPPA ASNS.R.V (C.1): 0.968
RPPA ATM.R.V (C.1): 0.876
RPPA ATM_pS1981.R.V (C.1): 1.025
RPPA ATP5A.M.C (C.1): 1.084
RPPA ATP5H.R.V (C.1): 1.134
RPPA ATRX.R.C (C.1): 0.823
RPPA AceCS1.R.V (C.1): 1.056
RPPA Akt1.R.V (C.1): 0.796
RPPA Akt1_pS473.R.V (C.1): 0.792
RPPA Akt2.R.V (C.1): 0.881
RPPA Akt2_pS474.R.C (C.1): 0.939
RPPA Akt.R.V (C.1): 0.872
RPPA Akt_pS473.R.V (C.1): 0.917
RPPA Akt_pT308.R.V (C.1): 0.810
RPPA Ambra1_pS52.R.C (C.1): 1.060
RPPA Annexin.I.M.V (C.1): 0.884
RPPA Annexin.VII.M.V (C.1): 1.054
RPPA Atg3.R.V (C.1): 0.850
RPPA Atg4B.R.C (C.1): 0.734
RPPA Atg5.R.C (C.1): 0.909
RPPA Atg7.R.V (C.1): 0.713
RPPA Aurora.A.R.C (C.1): 1.325
RPPA Aurora.ABC_pT288_pT232_pT198.R.C (C.1): 1.697
RPPA Axl.R.V (C.1): 0.673
RPPA B7.H3.R.C (C.1): 0.862
RPPA B7.H4.R.C (C.1): 0.874
RPPA B.Raf.R.C (C.1): 0.709
RPPA B.Raf_pS445.R.V (C.1): 0.874
RPPA BCL2A1.R.V (C.1): 0.885
RPPA BMK1.Erk5_pT218_Y220.R.V (C.1): 1.100
RPPA BRCA1.M.C (C.1): 0.993
RPPA Bad_pS112.R.V (C.1): 1.031
RPPA Bak.R.C (C.1): 1.026
RPPA Bax.R.V (C.1): 0.917
RPPA Bcl2.R.C (C.1): 1.064
RPPA Bcl.xL.R.V (C.1): 0.877
RPPA BiP.GRP78.M.C (C.1): 0.971
RPPA Bid.R.C (C.1): 0.858
RPPA Bim.R.V (C.1): 0.886
RPPA X4E.BP1.R.V (C.1): 1.220
RPPA X4E.BP1_pS65.R.V (C.1): 0.985
RPPA X4E.BP1_pT37_T46.R.V (C.1): 0.975
RPPA X14.3.3.zeta.R.V (C.1): 1.026
RPPA X53BP1.R.V (C.1): 0.922
RPPA b.Actin.R.C (C.1): 0.996
RPPA b.Catenin_pT41_S45.R.V (C.1): 0.984
RPPA c.Abl.R.V (C.1): 1.031
RPPA c.Abl_pY412.R.C (C.1): 0.928
RPPA c.IAP2.R.C (C.1): 1.007
RPPA PREX1.R.V Average (average of 3): 0.915
RPPA PTEN.R.V Average (average of 3): 0.933
RPPA PTPN12.R.V Average (average of 3): 0.962
RPPA PYGB.R.V Average (average of 3): 1.021
RPPA PYGM.M.C Average (average of 3): 1.025
RPPA Puma.R.C Average (average of 3): 0.968
RPPA Pyk2_pY402.R.C Average (average of 3): 0.960
RPPA RBM15.R.V Average (average of 3): 0.873
RPPA RIP3.R.C Average (average of 3): 0.948
RPPA RIP.R.C Average (average of 3): 0.978
RPPA RPA32_pS4_S8.R.C Average (average of 3): 1.083
RPPA RRM1.R.C Average (average of 3): 0.916
RPPA RRM2.R.C Average (average of 3): 0.917
RPPA RSK1.R.V Average (average of 3): 0.967
RPPA RSK.R.C Average (average of 3): 0.909
RPPA Rab11.R.C Average (average of 3): 0.990
RPPA Rab25.R.V Average (average of 3): 0.979
RPPA Rad17_pS645.R.V Average (average of 3): 1.063
RPPA Rad23A.R.C Average (average of 3): 0.920
RPPA Rad50.R.V Average (average of 3): 0.991
RPPA Rad51.R.C Average (average of 3): 1.083
RPPA Raptor.R.V Average (average of 3): 0.939
RPPA Rb.M.Q Average (average of 3): 1.024
RPPA Rb_pS807_S811.R.V Average (average of 3): 0.952
RPPA Rheb.M.C Average (average of 3): 1.056
RPPA Rictor.R.C Average (average of 3): 0.955
RPPA Rictor_pT1135.R.V Average (average of 3): 1.027
RPPA S6.M.V Average (average of 3): 0.930
RPPA S6_pS235_S236.R.V Average (average of 3): 0.713
RPPA S6_pS240_S244.R.V Average (average of 3): 0.956
RPPA SCD.M.V Average (average of 3): 1.034
RPPA SF2.R.V Average (average of 3): 1.005
RPPA SFRP1.R.V Average (average of 3): 0.965
RPPA SGK1.R.V Average (average of 3): 1.012
RPPA SGK3.R.V Average (average of 3): 1.035
RPPA SHP2.R.V Average (average of 3): 1.004
RPPA SHP.2_pY542.R.C Average (average of 3): 0.896
RPPA SIRPαR.V Average (average of 3): 1.009
RPPA SLC1A5.R.C Average (average of 3): 0.975
RPPA SOD1.M.V Average (average of 3): 1.031
RPPA SOD2.R.V Average (average of 3): 1.115
RPPA SOX7.R.V Average (average of 3): 1.015
RPPA STING.R.V Average (average of 3): 0.904
RPPA Shc_pY317.R.C Average (average of 3): 1.847
RPPA Slfn11.G.C Average (average of 3): 0.945
RPPA Smac.M.Q Average (average of 3): 0.998
RPPA Smad1.R.V Average (average of 3): 1.021
RPPA Smad3.R.V Average (average of 3): 0.979
RPPA Snail.M.Q Average (average of 3): 0.977
RPPA Sox2.R.V Average (average of 3): 0.987
RPPA Sox17.R.V Average (average of 3): 1.018
RPPA Src.M.V Average (average of 3): 1.079
RPPA Src_pY416.R.V Average (average of 3): 0.992
RPPA Src_pY527.R.V Average (average of 3): 0.908
RPPA Stat1_pY701.R.V Average (average of 3): 1.035
RPPA Stat3.R.C Average (average of 3): 0.972
RPPA Stat3_pY705.R.C Average (average of 3): 1.002
RPPA Stat5a.R.V Average (average of 3): 0.958
RPPA TAZ.R.V Average (average of 3): 0.958
RPPA TEAD.R.C Average (average of 3): 0.967
RPPA TFAM.R.V Average (average of 3): 0.914
RPPA TFRC.R.V Average (average of 3): 0.926
RPPA TIGAR.R.V Average (average of 3): 0.978
RPPA TRAP1.M.V Average (average of 3): 1.032
RPPA TRIM25.R.C Average (average of 3): 0.869
RPPA TRIP13.R.V Average (average of 3): 1.026
RPPA Transglutaminase.M.V Average (average of 3): 1.215
RPPA signal, antibody TSC1.R.C, Average (average of 3 replicates): 0.905
RPPA signal, antibody TTF1.R.V, Average (average of 3 replicates): 0.943
RPPA signal, antibody TUFM.R.V, Average (average of 3 replicates): 1.288
RPPA signal, antibody Tuberin.R.V, Average (average of 3 replicates): 0.933
RPPA signal, antibody Tuberin_pT1462.R.V, Average (average of 3 replicates): 1.050
RPPA signal, antibody Twist.M.C, Average (average of 3 replicates): 1.060
RPPA signal, antibody Tyro3.R.V, Average (average of 3 replicates): 1.231
RPPA signal, antibody U.Histone.H2B.R.C, Average (average of 3 replicates): 0.832
RPPA signal, antibody UBAC1.R.V, Average (average of 3 replicates): 0.948
RPPA signal, antibody UBQLN4.M.C, Average (average of 3 replicates): 0.975
RPPA signal, antibody UGT1A.M.V, Average (average of 3 replicates): 1.078
RPPA signal, antibody ULK1_pS757.R.C, Average (average of 3 replicates): 0.965
RPPA signal, antibody UQCRC2.M.C, Average (average of 3 replicates): 0.921
RPPA signal, antibody UVRAG.R.C, Average (average of 3 replicates): 0.967
RPPA signal, antibody VASP.R.V, Average (average of 3 replicates): 0.887
RPPA signal, antibody VAV1.R.C, Average (average of 3 replicates): 0.939
RPPA signal, antibody VEGFR.2.R.V, Average (average of 3 replicates): 0.919
